Assays:
Mcl-1 = target: T1, Mcl-1 (Homo sapiens, UniProt Q07820); assay: Target expression analysis by western blot (Mcl-1) in IGROV1-R10 cells; assay type: cell-based; conditions: 24 h exposure, 1 μM
T1 construct: endogenous in cells; host or cells: IGROV1-R10 (human platinum-resistant ovarian carcinoma)
Experimental: (§1) Human platinum resistant ovarian carcinoma cells IGROV1-R10 were used. This cell line was grown in RPMI 1640 medium supplemented with 2 mM Glutamax™, 25 mM HEPES, 10% fetal calf serum, and 33 mM sodium bicarbonate (Fisher Scientific, Illkirch, France). Cells were maintained at 37° C. in a humid atmosphere with 5% C02. Cells were seeded in 25 cm^2 flasks. After 24 h, exponentially growing cells were exposed to 1 μM of compounds for 24 h. CRBN-PBM1-001 targeting both Mcl-1 and CRBN and Pyridoclax were designed and synthetized by the CERMN (Centre d'Etudes et de Recherche sur le Médicament de Normandie) and dissolved in DiMethyl SulfOxide (DMSO, Sigma-Aldrich).
(§2) Cells were rinsed with ice-cold PBS, suspended in a lysis buffer [RIPA: NaCl 150 mM, Tris (pH 8) 50 mM, Triton X100 1%, PMSF 4 mM, EDTA 5 mM, NaF 10 mM, NaPPi 10 mM, Na3VO4 1 mM, aprotinin 0.5 μL/mL and 4.6 mL ultra-pure water] and incubated on ice for 30 min. Lysates were collected after centrifugation (13200 g, 10 min, 4° C.) and protein concentrations were determined using the Bradford assay (Bio-Rad, Hercules, USA). Equal amounts of protein (25 μg) were separated by SDS-PAGE on a 4-15% gradient polyacrylamide Mini-PROTEAN®TGX™ precast gel (Bio-Rad). […] The relative intensities of the protein bands were quantified using the ImageJ software, and the values were normalized to the intensities of the respective Actin signals. […]

Bcl-xL = target: T2, Bcl-xL (Homo sapiens, UniProt Q07817); assay: Target expression analysis by western blot (Bcl-xL) in IGROV1-R10 cells; assay type: cell-based; conditions: 24 h exposure, 1 μM
T2 construct: endogenous in cells; host or cells: IGROV1-R10 (human platinum-resistant ovarian carcinoma)
T2 sequence (Q07817 whole entry): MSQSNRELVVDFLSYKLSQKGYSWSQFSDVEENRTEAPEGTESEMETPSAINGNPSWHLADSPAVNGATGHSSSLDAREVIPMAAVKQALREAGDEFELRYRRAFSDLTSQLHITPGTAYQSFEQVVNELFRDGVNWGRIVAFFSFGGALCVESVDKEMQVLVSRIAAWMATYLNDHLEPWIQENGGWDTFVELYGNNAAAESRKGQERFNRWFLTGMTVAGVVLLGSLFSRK
Experimental: as §1, §2

T1 sequence (Q07820 whole entry): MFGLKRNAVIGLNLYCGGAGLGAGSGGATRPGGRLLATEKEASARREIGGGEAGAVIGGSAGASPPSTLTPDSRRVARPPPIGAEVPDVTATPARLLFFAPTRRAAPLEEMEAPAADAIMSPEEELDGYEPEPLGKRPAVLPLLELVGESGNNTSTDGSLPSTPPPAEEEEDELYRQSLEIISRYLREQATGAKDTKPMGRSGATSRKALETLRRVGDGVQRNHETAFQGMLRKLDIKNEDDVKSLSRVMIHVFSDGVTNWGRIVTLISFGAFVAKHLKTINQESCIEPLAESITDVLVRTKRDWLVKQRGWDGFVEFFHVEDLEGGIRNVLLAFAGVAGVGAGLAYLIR

decrease of Mcl-1 expression (Mcl-1; densitometry analysis of western blot normalized to Actin) [%]	Bcl-xL expression (Bcl-xL)	Mcl-1 expression (modulation) (Mcl-1; single agent, western blot)	SMILES
52	not affected		Cc1cc(-c2ncc(C#CCOCCOCCNc3cccc4c3C(=O)N(C3CCC(=O)NC3=O)C4=O)cc2/C=C/c2ccccc2)cnc1-c1cccnc1 (stereo not drawn) [CRBN-PBM1-001]
		did not modulate	Cc1cc(-c2ncc(-c3cccnc3)cc2/C=C/c2ccccc2)cnc1-c1cccnc1 [Pyridoclax, reference compound]
